For one data set, the system named is human hepatocytes. As to the kind of experiment: Functional antagonism of glucagon-stimulated glucose production in hepatocytes. The data set is classed as cell-based. The conditions noted are these: human hepatocyte assay, 1 nM glucagon; read-out: Hu Hepatocyte EC50. Here is the method: Primary human, monkey, dog, rat, or mouse hepatocytes are seeded onto collagen-coated 24-well plates in Williams E medium (supplemented with 10% fetal bovine serum) and incubated at 37° C. overnight in M199 medium (supplemented with 15 mM glucose and 10 nM human insulin). The following day cells are washed twice with a glucose-free Kreb-bicarbonate buffer, pH 7.4, containing 0.1% BSA. Cells are then incubated at 37° C. with the aforementioned buffer containing 1 nM glucagon and varying concentrations of a glucagon antagonist (0-100 microM). Control wells without glucagon or antagonist are also included. After 1 hour, an aliquot of the medium is removed and analyzed for glucose content by means of the glucose oxidase method. The background glucose levels observed in the control wells are subtracted from the glucagon and antagonist containing wells. A graph of % glucose concentration vs drug concentration is plotted and an EC50 value for inhibition of glucose production generated using Sigmaplot software (SAS, Cary, N.C.). Alternatively, intracellular cAMP levels are measured using standard kits and EC50 values determined by plotting these levels against drug concentration. Antagonists of the glucagon receptor inhibit glucagon-induced cAMP production.

Data set [1] can be described thus: Oral bioavailability in the rat. The class given is in vivo.
For a further data set, the system named is db/db mouse. As to the kind of experiment: Glucose lowering in db/db mice. The class given is in vivo. The conditions noted are these: oral gavage, freely-feeding db/db mice, 100% = normalization to lean db/+, read-out: % Glu lowering in db/db mouse @ 30 mg/kg. Here is the method: To assess the effects of compounds provided herein on blood glucose levels in the db/db mouse, an animal model of type 2 diabetes, compounds are dissolved in polyethylene glycol-400 and administered by oral gavage to db/db mice in the freely-feeding state at doses of 30 and/or 100 mg/kg. Blood glucose levels are assessed in blood samples obtained by tail bleed at baseline (prior to drug administration) and at regular time intervals over 24 hrs using a portable glucometer such as the OneTouch or HemoCue meters. The magnitude of blood glucose lowering elicited by the compounds provided herein is determined by comparison to those in db/db mice administered only the vehicle. The percentage glucose lowering is calculated by factoring in the blood glucose levels of vehicle-treated lean db/+ (heterozygote) mice, with 100% representing the normalization of blood glucose levels from the hyperglycemic state (vehicle-treated db/db mice) to the normoglycemic state (vehicle-treated db/+ mice).

Another data set addresses T1, human glucagon receptor (Homo sapiens, UniProt P47871).
T1 construct: host or cells: human liver samples or a recombinant cell line (alternatives)
As to the kind of experiment: Human glucagon receptor affinity ([125I]glucagon displacement, membrane preparation). The class given is binding. As to conditions: human glucagon receptor binding assay; stereo column says racemic or R-isomer; read-out: Hu IC50. Here is the method: Compounds provided herein are dissolved in a suitable solvent (e.g., dimethlysulfoxide) at a concentration of 10 mM and then diluted in buffer (e.g., 50 mM Hepes, pH 7.4, 5 mM MgCl2, 1 mM CaCl2, and 0.2% BSA) to concentrations ranging from 1 nM to 100 μM. Compounds (20 μL/well) and [^125I]glucagon at the final concentration of 0.125 nM (20 μl/well) (Perkin Elmer) are added to and mixed in wells of a 96-well plate (Costar, Corning) containing 120 μL of buffer. Next, an appropriate aliquot of a membrane preparation containing the human glucagon receptor (isolated from human liver samples or obtained from a recombinant cell line) is added to the wells. The binding mixtures are incubated for 2 hrs at room temperature. In the meantime, a MultiScreen 96-well filter plate (Millipore) is treated with 200 μL of the buffer, which is vacuumed through the filter just before the binding mixtures are transferred to the plate. At the end of incubation, binding mixtures are transferred to the wells of the MultiScreen 96-well filter plate and filtered through by applying vacuum. The plate is washed once with 200 μL per well of the buffer, and the filters are dried and counted using a gamma counter.

T1 sequence (P47871 26-477): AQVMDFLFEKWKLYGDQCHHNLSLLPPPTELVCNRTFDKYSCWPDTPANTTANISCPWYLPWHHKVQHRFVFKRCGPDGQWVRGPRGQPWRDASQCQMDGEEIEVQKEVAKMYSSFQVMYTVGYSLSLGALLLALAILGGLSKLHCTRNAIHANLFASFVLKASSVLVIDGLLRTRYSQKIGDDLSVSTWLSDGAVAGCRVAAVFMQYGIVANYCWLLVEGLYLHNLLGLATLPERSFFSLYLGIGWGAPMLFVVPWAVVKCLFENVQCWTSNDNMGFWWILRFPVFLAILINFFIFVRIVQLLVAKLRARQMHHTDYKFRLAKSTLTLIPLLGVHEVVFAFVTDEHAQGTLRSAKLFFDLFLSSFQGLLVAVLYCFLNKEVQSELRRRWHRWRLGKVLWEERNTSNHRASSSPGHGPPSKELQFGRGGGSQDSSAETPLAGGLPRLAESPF

One may read the EC50 as the concentration giving half of the maximal effect. For orientation: IC50 means the point on the concentration scale where inhibition reaches its midpoint. Take `Cc1cc(Cl)ccc1-c1ccc(NC(=O)[C@H](Cc2ccc(C(=O)NCCS(=O)(=O)O)cc2)c2cccc(C3CCC(C)(C)CC3)c2)cc1`: the EC50 in the data set on human hepatocytes came to 12 nM. Moreover, the OBAV in rat in data set [1] was 52%. In addition, in the data set with db/db mouse, the inhibition in vivo at 30 mg/kg amounted to 45%. Besides, the IC50 on human glucagon receptor worked out at 10 nM.

Consider `Cc1ccccc1-c1ccc(NC(=O)C(Cc2ccc(C(=O)NCCS(=O)(=O)O)cc2)c2ccc(-c3ccc(C(C)(C)C)cc3)cc2)cc1` (racemic), for which the EC50 in the data set on human hepatocytes came to 194 nM. For the same compound, the inhibition in vivo at 30 mg/kg in the data set on db/db mouse is 45%. For the same compound, on human glucagon receptor, the IC50 worked out at 10 nM.

Regarding `Cc1cc(C(F)(F)F)ccc1-c1ccc(NC(=O)C(Cc2ccc(C(=O)NCCS(=O)(=O)O)cc2)c2ccc(C3=CCC(C)(C)CC3)cc2)cc1` (racemic), in the data set on human hepatocytes, the EC50 was 30 nM. Moreover, the inhibition in vivo at 30 mg/kg in the data set on db/db mouse came out at 20%. Besides, the IC50 on human glucagon receptor came out at 11 nM.

With `CC(C)(C)c1ccc(-c2ccc(C(Cc3ccc(C(=O)NCCS(=O)(=O)O)cc3)C(=O)Nc3ccc(C4=CCCC4)cc3)cc2)cc1` (racemic), the EC50 with human hepatocytes came to 65 nM. In addition, the inhibition in vivo at 30 mg/kg in the data set with db/db mouse amounted to 30%. In addition, the IC50 at human glucagon receptor was found to be 17 nM.

With `CC1(C)CC=C(c2cccc(C(Cc3ccc(C(=O)NCCS(=O)(=O)O)cc3)C(=O)Nc3ccc(-c4ccc(Cl)cc4Cl)cc3)c2)CC1` (racemic), in the data set with human hepatocytes, the concentration for a half-maximal effect (EC50) came to 30 nM. The inhibition in vivo at 30 mg/kg in the data set on db/db mouse was 28%. For the same compound, at human glucagon receptor, the IC50 worked out at 15 nM.

For the compound `Cc1cc(Cl)ccc1-c1ccc(NC(=O)C(Cc2ccc(C(=O)NCCS(=O)(=O)O)cc2)c2cccc(C3=CCC(C)(C)CC3)c2)cc1` (racemic), the EC50 with human hepatocytes worked out at 26 nM. Besides, in data set [1], the OBAV in rat was 38%. In the data set on db/db mouse, the inhibition in vivo at 30 mg/kg stood at 56%. The IC50 at human glucagon receptor was 9 nM.

Regarding `Cc1cc(Cl)ccc1-c1ccc(NC(=O)C(Cc2ccc(C(=O)NCCS(=O)(=O)O)cc2)c2ccc(C3=CCC(C)(C)CC3)cc2)cc1` (racemic), the EC50 in the data set on human hepatocytes came to 49 nM. The compound further had an OBAV in rat in data set [1] of 48%. Also, in the data set on db/db mouse, the inhibition in vivo at 30 mg/kg amounted to 42%. Further, the IC50 at human glucagon receptor was determined as 17 nM.

Take `Cc1cc(Cl)ccc1-c1ccc(NC(=O)[C@H](Cc2ccc(C(=O)NCCS(=O)(=O)O)cc2)c2ccc([C@H]3CC[C@@H](C(C)(C)C)CC3)cc2)cc1`: the EC50 in the data set on human hepatocytes turned out to be 3 nM. Besides, in data set [1], the OBAV in rat was found to be 54%. Further, in the data set with db/db mouse, the inhibition in vivo at 30 mg/kg came to 53%. Besides, the IC50 on human glucagon receptor was 9 nM.

`Cc1cc(Cl)ccc1-c1ccc(NC(=O)C(Cc2ccc(C(=O)NCCS(=O)(=O)O)cc2)c2ccc(C3CCC(C(C)(C)C)CC3)cc2)cc1` (racemic): the EC50 with human hepatocytes was 41 nM. Also, the inhibition in vivo at 30 mg/kg in the data set on db/db mouse came to 58%. On human glucagon receptor, the IC50 is 12 nM.

`Cc1cc(-c2ccc(NC(=O)[C@H](Cc3ccc(C(=O)NCCS(=O)(=O)O)cc3)c3ccc(-c4ccc(C(C)(C)C)cc4)cc3)cc2)ccc1Cl`: the EC50 in the data set with human hepatocytes was 31 nM. The OBAV in rat in data set [1] worked out at 62%. Also, the inhibition in vivo at 30 mg/kg with db/db mouse came out at 33%. Moreover, the IC50 at human glucagon receptor turned out to be 6 nM.

In the case of `Cc1cc(C)c(-c2ccc(NC(=O)[C@H](Cc3ccc(C(=O)NCCS(=O)(=O)O)cc3)c3ccc(-c4ccc(C(C)(C)C)cc4)cc3)cc2)c(C)c1`, in the data set with human hepatocytes, the EC50 came out at 4 nM. Further, the OBAV in rat in data set [1] turned out to be 73%. In the data set with db/db mouse, the inhibition in vivo at 30 mg/kg was 57%. Further, the IC50 on human glucagon receptor came out at 5 nM.

In the case of `CC(C)(C)C1CCC(c2ccc(C(Cc3ccc(C(=O)NCCS(=O)(=O)O)cc3)C(=O)Nc3ccc(-c4ccc(Cl)cc4Cl)cc3)cc2)CC1` (racemic) [drawing 106], the inhibition in vivo at 30 mg/kg in the data set on db/db mouse was found to be 25%. The IC50 at human glucagon receptor was found to be 16 nM.

Take `CC1(C)CC=C(c2ccc(NC(=O)C(Cc3ccc(C(=O)NCCS(=O)(=O)O)cc3)c3ccc(-c4ccc(C(C)(C)C)cc4)cc3)cc2)CC1` (racemic): the EC50 in the data set on human hepatocytes worked out at 60 nM. Besides, on human glucagon receptor, the IC50 was 18 nM.

Consider `CC1(C)CC=C(c2ccc(NC(=O)[C@H](Cc3ccc(C(=O)NCCS(=O)(=O)O)cc3)c3ccc(-c4ccc(C(C)(C)C)cc4)cc3)cc2)CC1`, for which the EC50 with human hepatocytes came out at 36 nM. Moreover, the OBAV in rat in data set [1] was found to be 69%. Besides, the inhibition in vivo at 30 mg/kg in the data set on db/db mouse is 29%. The IC50 on human glucagon receptor turned out to be 8 nM.

With `Cc1cccc2oc(-c3ccc(NC(=O)C(Cc4ccc(C(=O)NCCS(=O)(=O)O)cc4)c4ccc(C=CC(C)(C)C)cc4)cc3)nc12` (racemic), in the data set on human hepatocytes, the EC50 is 62 nM. For the same compound, the inhibition in vivo at 30 mg/kg in the data set with db/db mouse amounted to 39%. In addition, the IC50 on human glucagon receptor amounted to 13 nM.

`Cc1ccc(-c2cc(Cl)c(NC(=O)C(Cc3ccc(C(=O)NCCS(=O)(=O)O)cc3)c3ccc(C=CC(C)(C)C)cc3)cc2C)cc1F` (racemic): the EC50 with human hepatocytes was determined as 143 nM. Also, the IC50 on human glucagon receptor came to 20 nM.
